Laboratory results reported in US20260226497A1, “TRANSGENIC MAIZE EVENT MON 87427” (Monsanto Technology LLC, priority 2009, published 2026).

Tested on: event MON 87427 hybrids
Type: in vivo, maize
Conditions: two successive sprays at 2.25 lb a.e./acre each
Description: This illustrates that the F1 hybrid plants from event MON 87427 crosses are fully tolerant to glyphosate when used for weed control.

## O=C(O)CNCP(=O)(O)O [glyphosate, N-phosphonomethylglycine]
  injury or male fertility compared with NK603 hybrid: no difference was observed in injury or male fertility
